In PubChem BioAssay (NCI):
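Briefly, cells in 96-well plates were exposed to five compound concentrations for 48 h, and endpoints were estimated by linear interpolation. Definition used: TGI = concentration required for complete inhibition of growth.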

Legend:
Test in all cases: NCI tumour cell line growth inhibition, 48 h
MALME-3M melanoma = system: MALME-3M melanoma
RPMI-8226 leukemia = system: RPMI-8226 leukemia
A549 NSCLC = system: A549 NSCLC
SF-268 CNS = system: SF-268 CNS
U251 CNS = system: U251 CNS
MDA-N = system: MDA-N
PC-3 prostate = system: PC-3 prostate
786-0 renal = system: 786-0 renal
HCT-116 colon = system: HCT-116 colon
UO-31 renal = system: UO-31 renal
OVCAR-3 ovarian = system: OVCAR-3 ovarian

Structure (SMILES)	TGI (MALME-3M melanoma) [µM]	TGI (RPMI-8226 leukemia) [µM]	TGI (A549 NSCLC) [µM]	TGI (SF-268 CNS) [µM]	TGI (U251 CNS) [µM]	TGI (MDA-N) [µM]	TGI (PC-3 prostate) [µM]	TGI (786-0 renal) [µM]	TGI (HCT-116 colon) [µM]	TGI (UO-31 renal) [µM]	TGI (OVCAR-3 ovarian) [µM]
Clc1nc2c(C#Cc3ccccc3)ncnc2n1C1CCCCO1 (stereo not drawn)	41.7	35.8	37.3	37.2	26.2	25.2	43.2	25.3	21.7	25.1	30.4
CC1CN=C(c2ccc(-c3nc(-c4ccc(C5=NCC(C)N5)cc4)nc(N(C)C)n3)cc2)N1 (stereo not drawn)	8.87	17.9	12.8	6.53	2.35	4.03	4.42	4.49	3.16	19.9	4.74
COc1cccc(C23CCCC(C2)N(C)CC3OC(=O)c2ccccc2)c1OC (stereo not drawn)	48.1	55.3	> 100	> 100	> 100	37.7	81.8	> 100	> 100	> 100	> 100
N#Cc1c(N2CCN(c3ccc([N+](=O)[O-])cc3)CC2)[n+](=O)c2ccc(-c3ccc([N+](=O)[O-])cc3)cc2n1[O-]	> 100	> 75	> 100	> 100	> 41	> 100	> 100	> 100	> 100	> 100	> 77.2
N#C/C(=C1/c2cc([N+](=O)[O-])ccc2-c2c1cc([N+](=O)[O-])cc2[N+](=O)[O-])N1CCCCC1	> 100	> 100	> 100	> 100	> 100	> 100	> 100	> 100	> 100	> 100	> 100
O=C(O)CCSC1=NCCN1	> 100	> 100	> 100	> 100	> 100	> 100	> 100	> 100	> 100	> 100	> 100
CC1=NN2C(=N)/C(=C/c3ccccc3)C(=O)N=C2S1	> 100	> 100	> 100	> 100	> 100	> 100	> 100	> 100	> 100	> 100	> 100
COC(=O)[C@](C)(Cc1ccccc1)NC(=O)[C@@H](C)N1[C@@H](c2ccccc2)COC1(C)C	> 100	> 100	> 100	> 100	> 100	> 100	> 100	> 100	> 100	> 100	> 100
C=CC(OC(C)=O)c1ccc(OC(C)=O)cc1 (stereo not drawn)	11.2	5.92	43.6	10.7	5.65	10.9	7.82	2.99	19.4	4.25	16.4
COc1cc2c(cc1O)CCN(C)[C@H]2Cc1ccc(Oc2c(O)c(OC)cc3c2C[C@H]2c4c(c(OC)c(OC)c(OC)c4-3)CCN2C)cc1	13.6	5.09	10	11.5	9.05	9.95	8.9	9.4	7.98	9.77	10.6
CC(C)(CN1CCCCC1)C(/C=C/c1ccccc1)=N\NC(=O)N/N=C(/C=C/c1ccccc1)C(C)(C)CN1CCCCC1	3.7	3.96	6.12	8.94	3	3.01	7.7	2.78	2.93	2.37	6.82
Nn1c(Sc2nc3ccccc3c(=O)n2N)nc2ccccc2c1=O	12.8	11.5	39	22.3	20	15.5	28.4	18.6	12.6	3.26	40.3
CC(=Nc1cc(Cl)cc(Cl)c1)c1ccncc1	> 100	> 100	> 100	> 100	> 100	> 100	> 100	> 100	> 100	> 100	> 100
C/C(=N/NC(=S)N1CCN(C(=S)N/N=C(/C)c2ccccn2)CC1)c1ccccn1	> 100	> 100	> 100	57	> 100	> 100	> 100	> 100	> 100	> 76.7	> 100
CC1CN=C(c2ccc(CN3CCC(C4CCN(Cc5ccc(C6=NCC(C)N6)cc5)CC4)CC3)cc2)N1 (stereo not drawn)	63	46.2	46	53.7	29.6	47.3	35.8	34.1	34	58.4	44.5
Cc1ccc(NC2=N/C(=C/c3ccco3)C(Cl)=N2)cc1	> 100	> 100	> 100	> 100	> 100	> 100	> 100	> 100	> 100	> 100	> 100
CC(=O)NC(=O)NC1=NCCC(=O)N1CCc1c[nH]c2ccccc12	> 100	> 100	> 100	> 100	> 100	> 100	> 100	> 100	> 100	> 100	> 100
C=CCc1ccccc1C1CC2(C(=O)OC)OC1C(C(=O)OC)=C2C(=O)OC (stereo not drawn)	> 10	> 10	> 10	> 10	> 10	> 10	> 10	> 10	> 10	> 10	> 10
Cc1ccc(/C=N\NC(=O)c2ccncc2)s1	> 100	> 100	> 100	> 100	> 100	> 100	> 100	> 100	> 100	> 100	> 100
CN(C)CCNC(=O)c1cc(NC(=O)c2cc(NC(=O)CC/C=C3/[C@@H]4CC[C@H]3N=N4)cn2C)cn1C	> 100	> 100	> 100	> 100	> 100	> 100	> 100	> 100	> 100	> 100	> 100
CNC(=O)N(CCC#N)CCCN(C(=O)N(C)C)c1ccccc1	> 100	> 100	> 100	> 100	> 100	> 100	> 100	> 100	> 100	> 100	> 100
COc1cc(C)cc2c(-c3c(O)cc(O)c4c3C[C@H](C)N[C@H]4C)cc(-c3cc(-c4c(O)cc(O)c5c4C[C@H](C)N[C@H]5C)c4cc(C)cc(OC)c4c3O)c(O)c12	> 100	> 100	> 100	> 100	> 100	> 100	> 100	> 100	> 100	> 100	> 100
COc1cc2oc(=O)cc(C)c2c(OC)c1OC(C)=O	> 100	> 100	> 100	> 100	> 100	> 100	> 100	> 100	> 100	> 100	> 100
